# In ChEMBL document CHEMBL3046025, “Fungitoxic Properties of N-Phenylformamidoximes in Control of Benzimidazole-Resistant Isolates of Fungi” (1992):
# Active and inactive are the calls of the source. The rule behind the calls is not given here.
# Experiments:
# Botrytis cinerea [1] = assay: Antifungal activity against Benzimidalzole-resistant Botryotinia fuckeliana isolate Bc-44 at 0.001 to 1000 ppm after 3 days by agar dilution method; assay type: functional, organism-based
# Cercospora beticola [2] = assay: Antifungal activity against Benzimidalzole-resistant Cercospora beticola isolate Cb-19 infected in sugar beet seedlings at 200 ppm applied as soil drench 3 days prior to inoculation; assay type: functional
# Cercospora beticola [3] = assay: Antifungal activity against Benzimidalzole-resistant Cercospora beticola isolate 18-2 at 0.001 to 1000 ppm after 14 days by agar dilution method; assay type: functional, organism-based
# Cercospora beticola [4] = assay: Antifungal activity against Benzimidalzole-resistant Cercospora beticola isolate 18-2 infected in compound-treated sugar beet seedlings at 3.1 ppm after 12 days; assay type: functional
# Cercospora beticola [5] = assay: Ratio of EC50 for Benzimidalzole-resistant Cercospora beticola isolate 18-11 to EC50 for Benzimidalzole-resistant Cercospora beticola isolate 18-2; assay type: functional
# Botrytis cinerea [6] = assay: Ratio of EC50 for Benzimidalzole-resistant Botryotinia fuckeliana isolate Bc-20 to EC50 for Benzimidalzole-resistant Botryotinia fuckeliana isolate Bc-31; assay type: functional
# Botrytis cinerea [7] = assay: Ratio of EC50 for Benzimidalzole-sensitive Botryotinia fuckeliana isolate Bc-9 to EC50 for Benzimidalzole-resistant Botryotinia fuckeliana isolate Bc-31; assay type: functional
# Botrytis cinerea [8] = assay: Antifungal activity against Benzimidalzole-resistant Botryotinia fuckeliana isolate Bc-44 infected kidney bean leaves at 200 ppm applied as soil drench 3 days prior to inoculation; assay type: functional
# Cercospora beticola [9] = assay: Ratio of EC50 for Benzimidalzole-resistant Cercospora beticola isolate 6-13 to EC50 for Benzimidalzole-resistant Cercospora beticola isole Cb-19; assay type: functional
# Botrytis cinerea [10] = assay: Ratio of EC50 for Benzimidalzole-resistant Botryotinia fuckeliana isolate Bc-40 to EC50 for Benzimidalzole-resistant Botryotinia fuckeliana isolate Bc-31; assay type: functional
# Cercospora beticola [11] = assay: Ratio of EC50 for Benzimidalzole-resistant Cercospora beticola isolate 6-13 to EC50 for Benzimidalzole-resistant Cercospora beticola isolate 1-3; assay type: functional
# Cercospora beticola [12] = assay: Antifungal activity against Benzimidalzole-resistant Cercospora beticola isolate Cb-19 infected in sugar beet seedlings at 200 ppm treated as foliar application 7 days prior to inoculation; assay type: functional
# Cercospora beticola [13] = assay: Antifungal activity against Benzimidalzole-resistant Cercospora beticola isolate Cb-19 infected in sugar beet seedlings at 50 ppm treated as foliar application 7 days prior to inoculation; assay type: functional
# Botrytis cinerea [14] = assay: Antifungal activity against Benzimidalzole-resistant Botryotinia fuckeliana isolate Bc-44 infected kidney bean leaves at 50 ppm treated as foliar application followed by incubation for 7 days in green house condition; assay type: functional
# Cercospora beticola [15] = assay: Ratio of EC50 for Benzimidalzole-sensitive Cercospora beticola isolate 22-5 to EC50 for Benzimidalzole-resistant Cercospora beticola isolate 1-3; assay type: functional
# Botrytis cinerea [16] = assay: Antifungal activity against Benzimidalzole-resistant Botryotinia fuckeliana isolate Bc-44 infected kidney bean leaves at 3.1 ppm 24 hr post-infection measured after 3 days; assay type: functional
# Cercospora beticola [17] = assay: Antifungal activity against Benzimidalzole-resistant Cercospora beticola isolate Cb-19 at 0.001 to 1000 ppm after 14 days by agar dilution method; assay type: functional, organism-based
# Cercospora beticola [18] = assay: Antifungal activity against Benzimidalzole-resistant Cercospora beticola isolate Cb-19 infected in compound-treated sugar beet seedlings at 200 ppm after 12 days; assay type: functional
# Cercospora beticola [19] = assay: Ratio of EC50 for Benzimidalzole-resistant Cercospora beticola isolate 6-13 to EC50 for Benzimidalzole-resistant Cercospora beticola isolate 18-2; assay type: functional
# Botrytis cinerea [20] = assay: Antifungal activity against Benzimidalzole-resistant Botryotinia fuckeliana isolate Bc-44 infected compound-treated kidney bean leaves at 3.1 ppm after 4 days; assay type: functional
# Cercospora beticola [21] = assay: Ratio of EC50 for Benzimidalzole-resistant Cercospora beticola isolate 18-11 to EC50 for Benzimidalzole-resistant Cercospora beticola isolate 1-3; assay type: functional
# Botrytis cinerea [22] = assay: Ratio of EC50 for Benzimidalzole-resistant Botryotinia fuckeliana isolate Bc-40 to EC50 for Benzimidalzole-resistant Botryotinia fuckeliana isolate Bc-44; assay type: functional
# Cercospora beticola [23] = assay: Antifungal activity against Benzimidalzole-resistant Cercospora beticola isolate 1-3 at 0.001 to 1000 ppm after 14 days by agar dilution method; assay type: functional, organism-based
# Cercospora beticola [24] = assay: Antifungal activity against Benzimidalzole-resistant Cercospora beticola isolate Cb-19 infected in sugar beet seedlings at 3.1 ppm treated as foliar application 7 days prior to inoculation; assay type: functional
# Cercospora beticola [25] = assay: Ratio of EC50 for […] to EC50 for Benzimidalzole-resistant Cercospora beticola isolate 49-4; assay type: functional
# Cercospora beticola [26] = assay: Antifungal activity against Benzimidalzole-resistant Cercospora beticola isolate 18-2 infected in compound-treated sugar beet seedlings at 12.5 ppm after 12 days; assay type: functional
# Cercospora beticola [27] = assay: Antifungal activity against Benzimidalzole-resistant Cercospora beticola isolate 28-8 at 0.001 to 1000 ppm after 14 days by agar dilution method; assay type: functional, organism-based
# Cercospora beticola [28] = assay: Ratio of EC50 for Benzimidalzole-resistant Cercospora beticola isolate 18-11 to EC50 for Benzimidalzole-resistant Cercospora beticola isole 28-8; assay type: functional
# Botrytis cinerea [29] = assay: Ratio of EC50 for Benzimidalzole-sensitive Botryotinia fuckeliana isolate Bc-3 to EC50 for Benzimidalzole-resistant Botryotinia fuckeliana isolate Bc-31; assay type: functional
# Cercospora beticola [30] = assay: Antifungal activity against Benzimidalzole-sensitive Cercospora beticola isolate 24-3 at 0.001 to 1000 ppm after 14 days by agar dilution method; assay type: functional, organism-based
# Cercospora beticola [31] = assay: Antifungal activity against Benzimidalzole-resistant Cercospora beticola isolate 18-2 infected in compound-treated sugar beet seedlings at 50 ppm after 12 days; assay type: functional
# Botrytis cinerea [32] = assay: Antifungal activity against Benzimidalzole-resistant Botryotinia fuckeliana isolate Bc-44 infected kidney bean leaves at 50 ppm applied as soil drench 3 days prior to inoculation; assay type: functional
# Cercospora beticola [33] = assay: Ratio of EC50 for Benzimidalzole-sensitive Cercospora beticola isolate 22-5 to EC50 for Benzimidalzole-resistant Cercospora beticola isole 28-8; assay type: functional
# Cercospora beticola [34] = assay: Antifungal activity against Benzimidalzole-resistant Cercospora beticola isolate Cb-19 infected in sugar beet seedlings at 3.1 ppm 24 hr-post inoculation; assay type: functional
# Botrytis cinerea [35] = assay: Antifungal activity against Benzimidalzole-resistant Botryotinia fuckeliana isolate Bc-20 at 0.001 to 1000 ppm after 3 days by agar dilution method; assay type: functional, organism-based
# Cercospora beticola [36] = assay: Ratio of EC50 for Benzimidalzole-sensitive Cercospora beticola isolate 18-1 to EC50 for Benzimidalzole-resistant Cercospora beticola isole 28-8; assay type: functional
# Botrytis cinerea [37] = assay: Antifungal activity against Benzimidalzole-resistant Botryotinia fuckeliana isolate Bc-44 infected compound-treated kidney bean leaves at 12.5 ppm after 4 days; assay type: functional
# Botrytis cinerea [38] = assay: Antifungal activity against Benzimidalzole-sensitive Botryotinia fuckeliana isolate Bc-9 infected compound-treated kidney bean leaves at 50 ppm after 4 days; assay type: functional
# Cercospora beticola [39] = assay: Antifungal activity against Benzimidalzole-resistant Cercospora beticola isolate Cb-19 infected in sugar beet seedlings at 50 ppm 24 hr-post inoculation; assay type: functional
# Cercospora beticola [40] = assay: Ratio of EC50 for Benzimidalzole-sensitive Cercospora beticola isolate 24-3 to EC50 for Benzimidalzole-resistant Cercospora beticola isolate 49-4; assay type: functional
# Cercospora beticola [41] = assay: Antifungal activity against Benzimidalzole-resistant Cercospora beticola isolate Cb-19 infected in compound-treated sugar beet seedlings at 50 ppm after 12 days; assay type: functional
# Cercospora beticola [42] = assay: Antifungal activity against Benzimidalzole-resistant Cercospora beticola isolate 49-4 at 0.001 to 1000 ppm after 14 days by agar dilution method; assay type: functional, organism-based
# Cercospora beticola [43] = assay: Ratio of EC50 for Benzimidalzole-resistant Cercospora beticola isolate 20-2 to EC50 for Benzimidalzole-resistant Cercospora beticola isolate 1-3; assay type: functional
smiles,measurement,setting,value
C#CCOc1c(Cl)cc(N/C=N/OC)cc1Cl,Activity,Botrytis cinerea [1],Active
same,Activity,Cercospora beticola [2],72%
same,Activity,Cercospora beticola [3],Active
same,Activity,Cercospora beticola [4],91%
same,Ratio EC50,Cercospora beticola [5],> 1000
same,Ratio EC50,Botrytis cinerea [6],> 1000
same,Ratio EC50,Botrytis cinerea [7],> 1000
same,Activity,Botrytis cinerea [8],7%
same,Ratio EC50,Cercospora beticola [9],> 1000
same,Ratio EC50,Botrytis cinerea [10],> 1000
same,Ratio EC50,Cercospora beticola [11],> 1000
same,Activity,Cercospora beticola [12],100%
same,Activity,Cercospora beticola [13],99%
same,Activity,Botrytis cinerea [14],100%
same,Ratio EC50,Cercospora beticola [15],> 1000
same,Activity,Botrytis cinerea [16],73%
same,Activity,Cercospora beticola [17],Active
same,Activity,Cercospora beticola [18],100%
same,Ratio EC50,Cercospora beticola [19],> 1000
same,Activity,Botrytis cinerea [20],95%
same,Ratio EC50,Cercospora beticola [21],> 1000
same,Ratio EC50,Botrytis cinerea [22],> 1000
same,Activity,Cercospora beticola [23],Active
same,Activity,Cercospora beticola [24],40%
same,Ratio EC50,Cercospora beticola [25],> 1000
same,Activity,Cercospora beticola [26],94%
same,Activity,Cercospora beticola [27],Active
same,Ratio EC50,Cercospora beticola [28],> 1000
same,Ratio EC50,Botrytis cinerea [29],> 1000
same,Activity,Cercospora beticola [30],inactive
same,Activity,Cercospora beticola [31],100%
same,Activity,Botrytis cinerea [32],0%
same,Ratio EC50,Cercospora beticola [33],> 1000
same,Activity,Cercospora beticola [34],44%
same,Activity,Botrytis cinerea [35],inactive
same,Ratio EC50,Cercospora beticola [36],> 1000
same,Activity,Botrytis cinerea [37],100%
same,Activity,Botrytis cinerea [38],5%
same,Activity,Cercospora beticola [39],98%
same,Ratio EC50,Cercospora beticola [40],> 1000
same,Activity,Cercospora beticola [41],100%
same,Activity,Cercospora beticola [42],Active
same,Ratio EC50,Cercospora beticola [43],> 1000
C#CCOc1cc(N/C=N/OC)cc(Cl)c1OCC#C,Activity,Botrytis cinerea [1],Active
same,Activity,Cercospora beticola [2],94%
same,Activity,Cercospora beticola [3],Active
same,Activity,Cercospora beticola [4],84%
same,Ratio EC50,Cercospora beticola [5],> 1000
same,Ratio EC50,Botrytis cinerea [6],> 1000
same,Ratio EC50,Botrytis cinerea [7],> 1000
same,Activity,Botrytis cinerea [8],77%
same,Ratio EC50,Cercospora beticola [9],> 1000
same,Ratio EC50,Botrytis cinerea [10],> 1000
same,Ratio EC50,Cercospora beticola [11],> 1000
same,Activity,Cercospora beticola [12],100%
same,Activity,Cercospora beticola [13],100%
same,Activity,Botrytis cinerea [14],90%
same,Ratio EC50,Cercospora beticola [15],> 1000
same,Activity,Botrytis cinerea [16],91%
same,Activity,Cercospora beticola [17],Active
same,Activity,Cercospora beticola [18],100%
same,Ratio EC50,Cercospora beticola [19],> 1000
same,Activity,Botrytis cinerea [20],100%
same,Ratio EC50,Cercospora beticola [21],> 1000
same,Ratio EC50,Botrytis cinerea [22],> 1000
same,Activity,Cercospora beticola [23],Active
same,Activity,Cercospora beticola [24],58%
same,Ratio EC50,Cercospora beticola [25],> 1000
same,Activity,Cercospora beticola [26],100%
same,Activity,Cercospora beticola [27],Active
same,Ratio EC50,Cercospora beticola [28],> 1000
same,Ratio EC50,Botrytis cinerea [29],> 1000
same,Activity,Cercospora beticola [30],inactive
same,Activity,Cercospora beticola [31],100%
same,Activity,Botrytis cinerea [32],6%
same,Ratio EC50,Cercospora beticola [33],> 1000
same,Activity,Cercospora beticola [34],54%
same,Activity,Botrytis cinerea [35],inactive
same,Ratio EC50,Cercospora beticola [36],> 1000
same,Activity,Botrytis cinerea [37],100%
same,Activity,Botrytis cinerea [38],0%
same,Activity,Cercospora beticola [39],100%
same,Ratio EC50,Cercospora beticola [40],> 1000
same,Activity,Cercospora beticola [41],100%
same,Activity,Cercospora beticola [42],Active
same,Ratio EC50,Cercospora beticola [43],> 1000
